Series [1] is described as follows: Dynamic light scattering, hydrodynamic diameter and PDI of peptide-siRNA complexes. To be noted: DLS, 25 °C, peptide-siRNA complex at N/P 40, siRNA 50 nM, HBSS, mean of three independent experiments; for Z-Ave (hydrodynamic diameter): Malvern Nano ZS Zetasizer. The series is classed as physicochemical. The text has this:
The complex of oleyl conjugated peptides and siRNA was formed through physical mixing. Appropriate volumes of oleyl conjugated peptides and siRNA solution were mixed in Hank’s balanced salt solution (HBSS) buffer to obtain the complexes. The oleyl conjugated peptide-siRNA complexes were formed due to ionic interaction between positively charged arginine residues of the conjugates and the negatively charged phosphate groups of siRNAs. […] The N to P ratio is commonly used where N represents the number of moles of ionizable nitrogen in the delivery agent. In contrast, P refers to the number of moles of phosphates present in siRNA. The ratio is calculated using the following formula. N/P=number of moles pf peptidex number of ionized nitrogen atoms/(number of moles of siRA ×48)
The peptide-siRNA complexes were characterized using the dynamic light scattering (DLS) technique. Malvern Nano ZS Zetasizer (Westborough, MA, USA) was used to determine the hydrodynamic diameter and surface charge of the complexes at 25 °C. The zeta potential of the complexes was determined at 40 V using disposable folded capillary cells (DTS1070). The calibration of the instrument was performed by transfer standard DTS 1235. The disposable cuvettes were used for determining the hydrodynamic diameter. The N/P ratio 40 was selected for performing the dynamic light scattering experiment. At this N/P ratio, the final concentration of siRNA in the complex was 50 nM whereas the concentration of oleyl-(HR)4 was 24 µM, oleyl-R1-(HR)4 was 19.20 µM, oleyl-R2-(HR)4 was 16 µM, oleyl-R3-(HR)4 was 13.71 µM, oleyl-R4-(HR)4 was 12 µM, and oleyl-R5-(HR)4 was 10.67 µM. The final volume of the complex used for performing zeta potential was 750 µL. The measurements were performed in triplicate, where each measurement consisted of 20 runs. The zeta potential values were calculated using the Smoluchowski model. All the results passed the quality standard of the instrument.
Particle size was also determined at N/P 40 with the same concentrations of siRNA and oleyl conjugated peptides as described above. The experiments were performed in triplicate on each sample with an automatic attenuator setting. The results were checked with the quality standards of the instruments and were represented as mean ± SD of three independent experiments.

Series [2] relates to MDA-MB-231 cells. Put plainly: Cellular internalization of Alexa Fluor 488-labeled siRNA by flow cytometry. The series is classed as cell-based. To be noted: 24 h; for Increase in cellular uptake of siRNA compared to free siRNA: MDA-MB-231, N/P 40, Alexa-488 siRNA 50 nM, flow cytometry mean fluorescence intensity. As for the experimental part: The cellular uptake of siRNA complexed with oleyl conjugated peptides was evaluated using flow cytometry (BD-FACSVerse; BD Biosciences, San Jose, CA, USA) in live cells. Alexa fluor 488-labeled scrambled siRNA was used for making complexes with oleyl conjugated peptides. The peptide-siRNA complexes were made at N/P 40; the final concentration of siRNA in each complex was 50 nM. The study was performed on MDA-MB-231 according to the protocol described by Mandal et al.. Briefly, approximately 500,000 cells were seeded in each well of the six-well plates and were allowed to settle for 24 h. The cells were treated with the conjugate-siRNA complexes (N/P 40) and were incubated in a humidified atmosphere of 5% CO2 and 95% air at 37 °C for 24 h. After 24 h of treatment, the cells were washed three times with HBBS and were trypsinized. The suspended cells were centrifuged for 5 min at 1000 rpm (96× g) at 4 °C, and the cells pellet was washed with HBSS three times to remove any traces of the medium. Finally, the cells were resuspended in PBS and analyzed by flow cytometer using Alexa-Fluor-488 channel to quantify the mean fluorescence intensity. The mean fluorescent intensity in the treated cells was calculated for each sample based on the calibration of the signal gated with nontreated cells, serving as a negative control. Alexa-488 labeled scrambled siRNA served as a second negative control, and lipofectamine-siRNA treated cells were used as a positive control.
In general terms: A flow cytometer gives signals particle by particle.

The subject of series [3] is MDA-MB-231 cells. Put plainly: Cellular uptake of siRNA by confocal microscopy. The series is classed as cell-based. To be noted: MDA-MB-231, fixed cells, N/P 40, siRNA 50 nM, 24 h. The method, then: Confocal microscopy was used to corroborate the data obtained from flow cytometry. There have been reports for using fixed cells or live cells for imaging the cellular uptake of siRNA. We adopted the protocol of Aliabadi et al. to perform the confocal microscopy. Briefly, approximately 400,000 MDA-MB-231 cells were seeded on coverslips in 6-well plates and were allowed to settle for 24 h. After 24 h, the cells were visualized under an ordinary microscope for their health and confluency. Peptide-siRNA complexes at N/P ratio 40 were made containing a final concentration of 50 nM of siRNA, and the cells were treated with these complexes. Nontreated cells served as negative control while lipofectamine-siRNA complexes were used as a positive control. After 24 h of treatment, the cells grown on coverslips were washed 3 times with HBSS and fixed with 3.7% formaldehyde solutions solution for 30 min at room temperature. The […] of the cells were stained with Texas Red (TR) Phalloidin (Invitrogen) (1:250 in HBSS), while the nuclei of the cells were stained with 4′,6-diamidino-2-phenylindole (DAPI). Nikon A1R confocal microscope system was used to image the fixed cells at 60X objective and different filters for Alexa-488 (FITC), DAPI, and TR.

Series [4] deals with STAT-3. Put plainly: STAT-3 protein silencing by peptide/STAT-3 siRNA complexes (Western blot). The series is classed as cell-based. To be noted: MDA-MB-231, N/P 40, STAT-3 siRNA 50 nM, 48 h; for STAT-3 expression: GAPDH housekeeping. As for the experimental part: STAT-3 is an essential protein overexpressed in several cancer types, including breast cancer. The silencing effect of the STAT-3 siRNA delivered via oleyl conjugated peptides was determined by checking the expression of STAT-3 in peptide-siRNA complex treated cells. Expression of STAT-3 in nontreated cells served as a negative control, whereas the commercially used transfection agent lipofectamine (20 µg/mL) complexed with STAT-3 siRNA (50 nM) served as the positive control. STAT-3 expression was evaluated by the Western blotting experiment. Approximately 500,000 MDA-MB-231 cells were seeded in T-25 flasks and incubated at 37 °C under standard growth conditions. After 24 h, the cells were treated with peptide-siRNA complexes at N/P 40 for 48 h. The final siRNA concentration at this N/P was 50 nM. After 48 h of treatment, MDA-MB-231 cell lysates were prepared according to the standard protocol using RIPA buffer; the cell lysates were then incubated on ice for 1 h, during which the tubes were sonicated for 3 min after every 10 min. Following sonication for 1 h to ensure the complete lysis of cells, the tubes were centrifuged for 15 min at 12,000 rpm (RCF = 13,870× g) at 4 °C. The supernatant from the centrifuged tubes was transferred to a fresh set of pre-cooled microtubes, and the total protein concentration was determined using […]. Briefly, 200 μL of working reagent (50:1 A:B) was added to 25 μL of standard and unknown samples in triplicate into a 96-well plate, and the sample was mixed on a plate shaker for 30 s. The plate was then incubated at 37 °C and 5% CO2 for 30 min. After half an hour of incubation, the absorbance was measured at 562 nm using a Spectra MAX M5 microplate reader. The protein in each treatment sample was quantified using the BSA standard curve. A total of 15 µg of the protein was loaded per well in a 10% Mini-PROTEAN® TGX Stain-Free. Protein gel electrophoresis was performed in buffer (0.192 M glycine, 25 mM Tris, 0.1% SDS) for 30 min at 200 V. The gel was then transferred to Mini PVDF membrane (Catalog no. 1704156) using Trans-Blot® Turbo (Bio-Rad, Hercules, CA, USA). The membrane was blocked in BSA 5% for 3 h and then incubated at 4 °C overnight with the primary antibody (1:1000 in TBS-T). The membrane was then washed with TBS-T six times (5 min each time) and was subsequently incubated with the secondary HRP-linked antibody (1:1000 in TBS-T) for 1 h, followed by the washing steps. The detection of the bands was done by ECL Detect Kit using a ChemiDoc imager (Bio-Rad, Hercules, CA, USA). The bands were quantified using Image Lab™ software of ChemiDoc imager.

Where [5] appears, read: MDA-MB-231, N/P 40, siRNA 50 nM, flow cytometry, n = 3.

On to Oleyl-RRRR-(HR)4-OH [Oleyl-R4-(HR)4], for which, in series [1], the “PDI (polydispersity index)” value came out at 0.237 and the “Z-Ave (hydrodynamic diameter)” value worked out at 115.2 nm·days. Moreover, the “Increase in cellular uptake of siRNA compared to free siRNA” value in series [2] is listed as ~ 80 fold. Besides, the “Green fluorescence (Alexa-488 siRNA) in confocal images” value in series [3] was “comparable green fluorescence”. Besides, in series [4], the “Reduction (inhibition) in STAT-3 expression” value (“Reduction (inhibition)” below) is reported as ~ 41% and the STAT-3 expression is recorded as ~ 41%.
Take Oleyl-RRR-(HR)4-OH [Oleyl-R3-(HR)4]: in series [1], the “PDI (polydispersity index)” value is listed as 0.229 and the “Z-Ave (hydrodynamic diameter)” value was 117 nm·days. The “Increase in cellular uptake of siRNA compared to free siRNA” value in series [2] is given as ~ 80 fold. In addition, in series [4], the “Reduction (inhibition)” value was ~ 55% and the STAT-3 expression is ~ 55%.
Consider Oleyl-RR-(HR)4-OH [Oleyl-R2-(HR)4], for which, in series [1], the “PDI (polydispersity index)” value is on record as 0.217 and the “Z-Ave (hydrodynamic diameter)” value was found to be 115.6 nm·days. For the same substance, in series [4], the “Reduction (inhibition)” value is ~ 68% and the STAT-3 expression is recorded as ~ 68%.
Consider Oleyl-R-(HR)4-OH [Oleyl-R1-(HR)4], for which, in series [1], the “PDI (polydispersity index)” value was 0.201 and the “Z-Ave (hydrodynamic diameter)” value worked out at 116.9 nm·days. The “Mean fluorescent intensity compared with Alexa-488 siRNA treated cells” value in series [2] (setting [5]) is recorded as “nonsignificant difference in intensity”.
For the substance Oleyl-(HR)4-OH, in series [1], the “PDI (polydispersity index)” value stood at 0.213 and the “Z-Ave (hydrodynamic diameter)” value worked out at 120.1 nm·days. In series [2] (setting [5]), the “Mean fluorescent intensity compared with Alexa-488 siRNA treated cells” value is listed as “nonsignificant difference in intensity”.
As for “Oleyl-RRRRR-(HR)4-OH [Oleyl-R5-(HR)4, oleyl conjugated peptide with five R residues between oleyl and (HR)4]”, in series [1], the “PDI (polydispersity index)” value was 0.213 and the “Z-Ave (hydrodynamic diameter)” value is 115.6 nm·days. For the same substance, in series [2] (setting [5]), the “Cellular uptake compared with lipofectamine” value is recorded as “nonsignificant difference” and the “Cellular uptake of siRNA within the series” value was “maximum cellular uptake”. The “Green fluorescence (Alexa-488 siRNA) in confocal images” value in series [3] was “comparable green fluorescence”. In series [4], the “Reduction (inhibition)” value is listed as ~ 80% and the STAT-3 expression is recorded as ~ 20%. Also, the “STAT-3 inhibition compared with Lipofectamine 2000” value in series [4] (three independent experiments) is “comparable inhibition”.

The values are drawn from PMC9028392, “Oleyl Conjugated Histidine-Arginine Cell-Penetrating Peptides as Promising Agents for siRNA Delivery” (Pharmaceutics, 2022).
